From the NIST ThermoML archive (doi:10.1016/j.jct.2015.06.036)

Experiments:
[1] = 101 kPa, Liquid; for viscosity: Falling or rolling sphere viscometry; for speed of sound: Sing-around technique in a fixed-path interferometer; for mass density: Vibrating tube method
[2] = refractive index (Na D-line) (dimensionless); settings: 101 kPa, Liquid, Standard Abbe refractometry
[3] = xn = mol fraction of the nth substance listed; settings: 101 kPa, Liquid, x2 = 0; for viscosity: Falling or rolling sphere viscometry; for speed of sound: Sing-around technique in a fixed-path interferometer; for mass density: Vibrating tube method
[4] = refractive index (Na D-line) (dimensionless); xn = mol fraction of the nth substance listed; settings: 101 kPa, Liquid, Standard Abbe refractometry, x2 = 0

CO [methanol]
Settings	mass density, [1] [kg/m3]	refractive index, [2]	speed of sound, [1] [m/s]	viscosity, [1] [mPa·s]
278.15 K	805.4	–	1169	0.687
288.15 K	796	1.3316	1135	0.596
298.15 K	786.6	1.3265	1102	0.524
308.15 K	777.1	1.3224	1070	0.466
318.15 K	767.6	1.3182	1037	0.42

CO [methanol] + CCn1cc[n+](C)c1.F[B-](F)(F)F
Settings	mass density, [3] [kg/m3]	refractive index, [4]	speed of sound, [3] [m/s]	viscosity, [3] [mPa·s]
278.15 K	805.4	–	1169	0.687
288.15 K	796	1.3316	1135	0.596
298.15 K	786.6	1.3265	1102	0.524
308.15 K	777.1	1.3224	1069	0.466
318.15 K	767.6	1.3182	1037	0.42

CCCCn1cc[n+](C)c1.F[B-](F)(F)F [1-butyl-3-methylimidazolium tetrafluoroborate]
Settings	mass density, [1] [kg/m3]	refractive index, [2]	speed of sound, [1] [m/s]	viscosity, [1] [mPa·s]
278.15 K	1215.9	–	1615	361
288.15 K	1208.5	1.4243	1590	186
298.15 K	1201.3	1.4217	1565	105
308.15 K	1194.2	1.419	1542	64.8
318.15 K	1187.2	1.4164	1519	42.7

CCn1cc[n+](C)c1.F[B-](F)(F)F [1-ethyl-3-methylimidazolium tetrafluoroborate]
Settings	mass density, [1] [kg/m3]	refractive index, [2]	speed of sound, [1] [m/s]	viscosity, [1] [mPa·s]
278.15 K	1305.3	–	1677	101
288.15 K	1297.6	1.4143	1653	62
298.15 K	1290	1.4118	1629	41
308.15 K	1282.4	1.4092	1606	28.8
318.15 K	1274.9	1.4067	1583	21.2

CO [methanol] + CCCCn1cc[n+](C)c1.F[B-](F)(F)F
Settings	mass density, [3] [kg/m3]	refractive index, [4]	speed of sound, [3] [m/s]	viscosity, [3] [mPa·s]
278.15 K	805.4	–	1169	0.687
288.15 K	796	1.3316	1135	0.596
298.15 K	786.6	1.3265	1102	0.524
308.15 K	777.1	1.3224	1070	0.466
318.15 K	767.6	1.3182	1037	0.42
